Laboratory results from patent EP3839043A1, “SCREENING METHODS FOR COMPOUNDS MODULATING POLYAMINE TRANSPORT” (Katholieke Universiteit Leuven, priority 2019, dated 2021).

System: isolated mouse cortical neurons
Assay: TUNEL staining of SPM-treated primary neurons
Format: cell-based
Conditions: CA-074 10 µM; SPM 10 µM, 24 h; Atp13a2 knockdown neurons
Description: Neuron isolation - Primary cortical neurons were derived from E16 FVB/N mice embryos. Pregnant mice were sacrificed on gestation day 16 by cervical dislocation. E16 mice pup brains were collected and placed in a dish containing calcium- and magnesium-free Hanks' Balanced Salt Solution (HBSS, Life Technologies, 14180-046) on ice. Both cerebral hemispheres were separated from the cerebellum. Meninges were removed from the cerebral hemispheres and the brain cortices dissected. Brain cortices were collected, washed twice and digested with 0.05% trypsin (Life Technologies, 25300-054, 10 min at 37°C). Trypsin reaction was terminated by the addition of 7 ml HBSS and 1 ml of horse serum. Cells were separated by pipetting and filtration through a cell strainer (40 µm, Falcon, 352340). Cells were centrifuged at 1,000 rpm for 5 min (4°C), the supernatant discarded and the pellet suspended in 5 ml Dulbecco's Modified Eagle Medium (DMEM; Sigma-Aldrich, D6546) containing GlutaMAX (Life Technologies, 31966-021) containing 5% horse serum (Life Technologies, 26050-088) and 20 mM glucose (Sigma-Aldrich, 8270). Primary cortical neurons were plated in 12 well plates, on cover slips coated with poly-D-lysine (Sigma-Aldrich, P6407). […]
TUNEL staining - TUNEL staining was assessed according to the manufacturer's protocol for the Click-iT Plus TUNEL assay (ThermoFisher, C10617). […]

CCCNC(=O)[C@H]1O[C@@H]1C(=O)N[C@H](C(=O)N1CCC[C@H]1C(=O)O)[C@@H](C)CC [CA-074]
SPM-induced neuronal death (TUNEL positivity): rescues SPM-induced neuronal death
